# Patent US20200085839A1, “COMBINATION OF IMMUNOTHERAPEUTICS AND BISFLUOROALKYL-1,4-BENZODIAZEPINONE COMPOUNDS FOR TREATING LYMPHOMAS” (Ayala Pharmaceuticals Inc., priority 2018, published 2020)
# How the values were obtained:
# Assay in all cases: Cell surface BCMA by FACS
# Type in all cases: cell-based, human
# RC cells (DLBCL) = tested on: RC cells (DLBCL)
# Experimental: (§1) Cells were seeded at 1×10^4 cells/well in a total volume of 250 μl into a 96-well plate. The cells were cultured in RPMI supplemented with 10% FCS.
# (§2) The tested compounds (Compound 1 and Compound 22) were added to the cell cultures at concentrations of: 0, 10, 1, 0.5, 0.1, 0.01, 0.001 μM ([…], 10 nM, 100 nM, 500 nM, 1000 nM, and 10000 nM). Following 24 hours of incubation at 37° C., the cells were collected and stained with anti-BCMA antibody and immediately analyzed by FACS.
# (§3) […] cell lines, comprising 9 subtypes of lymphomas (see Table 1), were seeded at 1×10^5 cells/well in a total volume of 250 μl into a 96-well plate. The cells were cultured in RPMI medium supplemented with 10% FCS. Compound (22) was added to the cell cultures at a concentration of 10 μM, 1 μM, 100 nM, 10 nM, 1 nM, 100 pM, 10 pM, 1 pM, and 100 fM, and cell lines (8 from Hadassah Medical Center, 31 from Eurofins) were incubated at 37° C. for 24 hours with Compound (22). Following incubation, the cells were collected and BCMA levels were evaluated on the cell surface for cell-bound BCMA. Cells were stained with an anti-BCMA antibody (PE anti-human 19F2 BCMA, Biolegend), and cell surface BCMA levels were determined by FACS analysis (Mean Fluorescence Intensity. Soluble BCMA levels were analyzed by ELISA (Human BCMA/TNFRSF17 DuoSet kit: R&D Systems).
# REH cells (B-ALL) = tested on: REH cells (B-ALL)
# Experimental: as §1, §2, §3
# [1] = tested on: SUDHL-4 (Haddasah) cells (DLBCL)
# Experimental: as §1, §2, §3
# [2] = tested on: SP49 cells (Mantle Cell Lymphoma)
# Experimental: as §1, §2, §3
# Toledo cells (DLBCL) = tested on: Toledo cells (DLBCL)
# Experimental: as §1, §2, §3
# 018Z cells (B-ALL) = tested on: 018Z cells (B-ALL)
# Experimental: as §1, §2, §3
structure (smiles),measurement,setting,value
"Cc1cccc2c1NC(=O)[C@@H](NC(=O)[C@H](CCC(F)(F)F)[C@H](CCC(F)(F)F)C(N)=O)N=C2c1cccc(F)c1 [Compound (22), (2R,3S)—N-((3S)-5-(3-fluorophenyl)-9-methyl-2-oxo-2,3-dihydro-1H-1,4-benzodiazepin-3-yl)-2,3-bis(3,3,3-trifluoropropyl)succinamide]",mBCMA (MFI) Fold Increase,RC cells (DLBCL),2.9 fold
same,BCMA (Mean Fluorescence Intensity) 1 nM Compound (22),"RC cells (DLBCL); 1 nM, 24 h",12970
same,BCMA (Mean Fluorescence Intensity) 100 nM Compound (22),"RC cells (DLBCL); 100 nM, 24 h",15001
same,mBCMA (MFI) Fold Increase,REH cells (B-ALL),0.9 fold
same,BCMA (Mean Fluorescence Intensity) 1 nM Compound (22),"REH cells (B-ALL); 1 nM, 24 h",5559
same,BCMA (Mean Fluorescence Intensity) 100 nM Compound (22),"REH cells (B-ALL); 100 nM, 24 h",6463
same,mBCMA (MFI) Fold Increase,[1]; SUDHL-4 (Haddasah),2.5 fold
same,BCMA (Mean Fluorescence Intensity) 1 nM Compound (22),"[1]; SUDHL-4, 1 nM, 24 h",16100
same,BCMA (Mean Fluorescence Intensity) 100 nM Compound (22),"[1]; SUDHL-4, 100 nM, 24 h",23438
same,mBCMA (MFI) Fold Increase,[2],3.3 fold
same,BCMA (Mean Fluorescence Intensity) 1 nM Compound (22),"[2]; 1 nM, 24 h",12697
same,BCMA (Mean Fluorescence Intensity) 100 nM Compound (22),"[2]; 100 nM, 24 h",17462
same,mBCMA (MFI) Fold Increase,Toledo cells (DLBCL),3.2 fold
same,BCMA (Mean Fluorescence Intensity) 1 nM Compound (22),"Toledo cells (DLBCL); 1 nM, 24 h",7541
same,BCMA (Mean Fluorescence Intensity) 100 nM Compound (22),"Toledo cells (DLBCL); 100 nM, 24 h",9580
same,mBCMA (MFI) Fold Increase,018Z cells (B-ALL),0.9 fold
same,BCMA (Mean Fluorescence Intensity) 1 nM Compound (22),"018Z cells (B-ALL); 1 nM, 24 h",4121
same,BCMA (Mean Fluorescence Intensity) 100 nM Compound (22),"018Z cells (B-ALL); 100 nM, 24 h",4500
